Experiments:
Arc = settings: CPP 10 mg/kg i.p. at 1 hr before ECT; 1 hr after ECT; FIG. 2E
Protocol: (§1) Electroconvulsive treatment (ECT) was administered with pulses consisted of 1.0 s, 100 Hz, 18 mA stimulus of 0.3 ms delivered using the Ugo Basile ECT unit (Model 57800) as previously described (A. J. Cole, Neurochem 55, 1920 (1990)). […] S ham animals were similarly handled in parallel without the current delivery. In some experiments, ±3-(2-carboxypiperazin-4-yl)-propyl-1-phosphonic acid (CPP, 10 mg/kg body weight, i.p.), was injected at 1 hr before ECT. Potential damaging responses after ECT was examined by Western blot and immunostaining of the activated form of caspase (Caspase 3-a; Rabbit; 1:500; Cell Signaling) and phospho-ATM (Ataxia telangiectasia mutated kinase; mouse; Millipore) (3).
(§2) Dentate gyrus tissue was rapidly micro-dissected from adult WT mice, or with ECT, spatial exploration or running. […] For gene expression analysis, total RNA fraction was immediately isolated after dissection (Qiagen), treated with DNAase and reverse-transcribed into the first-strand cDNA (Invitrogen). Specific primers (listed in Table 1) were used in SYBR-green based quantitative real-time PCR to measure the expression level of target genes with the ΔΔT method (ABI). Most primers were designed to span introns to further prevent genomic DNA amplification during the PCR reaction.

Gadd45b = settings: CPP 10 mg/kg i.p. at 1 hr before ECT; 1 hr after ECT; FIG. 2E
Protocol: as §1, §2

Gadd45b expression = Gadd45b expression in cultured primary hippocampal neurons by Q-PCR; assay type: cell-based, mice; settings: for Gadd45b expression: agent alone, K^+ 50 mM, APV 200 μM, bicuculline 50 μM, FIG. 5A, 5C; for K^+-induced Gadd45b expression: pretreated 0.5 hr, then K^+ (50 mM) for 1 hr, BAPTA 50 μM, Nimodipin 10 μM, KN93 or KN92 10 μM, FIG. 5B
Source text: as §2
Primary hippocampal neurons were prepared from hippocampi of P0 mice and plated on poly-lysine coated coverslips in Neurobasal-A medium supplemented with B27 (Invitrogen) as previously described (H. Song, C. F. Stevens, F. H. Gage, Nature 417, 39 (2002)). AraC (5 μM) was added to eliminate proliferating cells. One-week old culture was used for all experiments. For pharmacological experiments, cultures were pretreated with the following inhibitors 30 minutes before stimulation with K^+ (50 mM) or glutamate (20 μM) for 1 hr: BAPTA (50 μM), Nimodipin (10 μM), APV (200 μM), bicuculline (50 μM), KN92 or KN93 (10

adult neural progenitors = test: Proliferation of adult hippocampal neural progenitors in culture; assay type: cell-based, rat; settings: FGF-1 0, 2, 5, 10 and 20 ng/ml versus FGF-2 20 ng/ml; cell number at 4 days in vitro; FIG. 23
Protocol: Established neural progenitors from adult rat hippocampus were cultured as monolayer as previously described (H. Song, C. F. Stevens, F. H. Gage, Nature 417, 39 (2002).). They were maintained on laminin and polyornithine-coated dishes in DMEM/F12 medium containing N2 supplement, L-glutamine (2 mM) and FGF-2 (20 ng/ml). Cultures were passaged for expansion when reaching 70% confluence. For FGF-1 experiments, early-passage, monolayer adherent cultures were plated at the clonal density in the presence of various concentration of FGF-1 or FGF-2 (PeproTech). At 4 days in vitro, cultures were fixed and cell numbers from each condition were determined by counting from randomly selected fields of 4 different biological replicates.

Row | Compound | Gadd45b expression (Gadd45b expression; glutamate 20 μM) | K^+-induced Gadd45b expression (Gadd45b expression) | other results
1 | O=C(O)C1CN(CCCP(=O)(O)O)CCN1 (racemic) [CPP, ±3-(2-carboxypiperazin-4-yl)-propyl-1-phosphonic acid] | – | – | ECT-induced Arc expression (Arc): abolished; ECT-induced Gadd45b expression (Gadd45b): abolished
2 | N[C@@H](CCCP(=O)(O)O)C(=O)O [APV] | significantly decreased | – | glutamate-induced Gadd45b expression (Gadd45b expression; APV 200 μM pre-treatment, glutamate 20 μM, FIG. 5C): blocked
3 | O=C(O)CN(CC(=O)O)c1ccccc1OCCOc1ccccc1N(CC(=O)O)CC(=O)O [BAPTA] | – | abolished | –
4 | COc1ccc(S(=O)(=O)Nc2ccccc2CN(C)C/C=C/c2ccc(Cl)cc2)cc1 [KN92] | – | not | –
5 | COc1ccc(S(=O)(=O)N(CCO)c2ccccc2CN(C)C/C=C/c2ccc(Cl)cc2)cc1 [KN93] | – | abolished | –
6 | [Cl-].[K+] [K^+] | significant increase | – | –
7 | COCCOC(=O)C1=C(C)NC(C)=C(C(=O)OC(C)C)C1c1cccc([N+](=O)[O-])c1 (centres unmarked) [Nimodipin] | – | abolished | –
8 | N[C@@H](CCC(=O)O)C(=O)O [glutamate] | induced | – | –
9 | FGF-1: fibroblast growth factor-1 (PeproTech) | – | – | mitogenic activity on neural progenitor proliferation in vitro (adult neural progenitors): robust mitogenic activity

Reference: patent publication US8735071B2, “Compositions for promoting epigenetic DNA demethylation and methods of use therefore” (The Johns Hopkins University, priority 2008, dated 2014)
